Experimental data as given in paper PMC11014391 (2024).

What was measured:
[1] = tested on: SAM-I^AD (yitJ SAM-I aptamer domain) (RNA, riboswitch) GGGCGUUCUUAUCAAGAGAAGCAGAGGGACUGGCCCGACGAAGCUUCAGCAACCGGUGUAAUGGCGAUCAGCCAUGACCAAGGUGCUAAAUCCAGCAAGCUCGAACAGCUUGGAAGAUAAGAAGCCCCCAAAAAAAAAAAAAAAAAAAAAAAA; assay: ITC; settings: 150 mM NaCl, 2 mM MgCl2; 10 mM HEPES pH 7.4, 25 °C; 10 μM RNA
[2] = tested on: SAM-I^1-156 (RNA, riboswitch) GGGAUAUCCGUUCUUAUCAAGAGAAGCAGAGGGACUGGCCCGACGAAGCUUCAGCAACCGGUGUAAUGGCGAUCAGCCAUGACCAAGGUGCUAAAUCCAGCAAGCUCGAACAGCUUGGAAGAUAAGAAGAGACAAAAUCACUGACAAAGUCUUCUUCUUCCCCCAAAAAAAAAAAAAAAAAAAAAAAA; assay: native PAGE switching, no probe; settings: MgCl2; THEM buffer pH 7.5; 0.5 μM RNA; top band; bottom band 23 ± 9 μM
[3] = tested on: SAM-I^1-156 (RNA, riboswitch) GGGAUAUCCGUUCUUAUCAAGAGAAGCAGAGGGACUGGCCCGACGAAGCUUCAGCAACCGGUGUAAUGGCGAUCAGCCAUGACCAAGGUGCUAAAUCCAGCAAGCUCGAACAGCUUGGAAGAUAAGAAGAGACAAAAUCACUGACAAAGUCUUCUUCUUCCCCCAAAAAAAAAAAAAAAAAAAAAAAA; assay: SPR kinetics; settings: 150 mM NaCl, MgCl2; HBS-N, 10 mM HEPES pH 7.4; apparent
[4] = tested on: SAM-I riboswitch without spacer and poly(A) tail (RNA, riboswitch) GGGAUAUCCGUUCUUAUCAAGAGAAGCAGAGGGACUGGCCCGACGAAGCUUCAGCAACCGGUGUAAUGGCGAUCAGCCAUGACCAAGGUGCUAAAUCCAGCAAGCUCGAACAGCUUGGAAGAUAAGAAGAGACAAAAUCACUGACAAAGUCUUCUUCUU; assay: fluorescence anisotropy switching (FASST), APO probe; settings: 150 mM NaCl, 2 mM MgCl2; 10 mM HEPES pH 7.4; APO-FAM-SAM DNA probe displaced
[5] = tested on: SAM-I^1-156 (RNA, riboswitch) GGGAUAUCCGUUCUUAUCAAGAGAAGCAGAGGGACUGGCCCGACGAAGCUUCAGCAACCGGUGUAAUGGCGAUCAGCCAUGACCAAGGUGCUAAAUCCAGCAAGCUCGAACAGCUUGGAAGAUAAGAAGAGACAAAAUCACUGACAAAGUCUUCUUCUUCCCCCAAAAAAAAAAAAAAAAAAAAAAAA; assay: as above; settings: 150 mM NaCl, 2 mM MgCl2; 10 mM HEPES pH 7.4, 37 °C; 75 nM RNA; 50 nM APO-FAM-SAM DNA probe displaced
[6] = tested on: SAM-I^AD (yitJ SAM-I aptamer domain) (RNA, riboswitch) GGGCGUUCUUAUCAAGAGAAGCAGAGGGACUGGCCCGACGAAGCUUCAGCAACCGGUGUAAUGGCGAUCAGCCAUGACCAAGGUGCUAAAUCCAGCAAGCUCGAACAGCUUGGAAGAUAAGAAGCCCCCAAAAAAAAAAAAAAAAAAAAAAAA; assay: SPR kinetics; settings: 150 mM NaCl, MgCl2; HBS-N, 10 mM HEPES pH 7.4; apparent
[7] = tested on: SAM-I^1-156 (RNA, riboswitch) GGGAUAUCCGUUCUUAUCAAGAGAAGCAGAGGGACUGGCCCGACGAAGCUUCAGCAACCGGUGUAAUGGCGAUCAGCCAUGACCAAGGUGCUAAAUCCAGCAAGCUCGAACAGCUUGGAAGAUAAGAAGAGACAAAAUCACUGACAAAGUCUUCUUCUUCCCCCAAAAAAAAAAAAAAAAAAAAAAAA; assay: native PAGE switching with HOLO-FAM-SAM probe; settings: MgCl2; THEM buffer pH 7.5; HOLO-FAM-SAM DNA probe hybridizes
[8] = tested on: SAM-I riboswitch without spacer and poly(A) tail (RNA, riboswitch) GGGAUAUCCGUUCUUAUCAAGAGAAGCAGAGGGACUGGCCCGACGAAGCUUCAGCAACCGGUGUAAUGGCGAUCAGCCAUGACCAAGGUGCUAAAUCCAGCAAGCUCGAACAGCUUGGAAGAUAAGAAGAGACAAAAUCACUGACAAAGUCUUCUUCUU; assay: fluorescence anisotropy switching (FASST), HOLO probe; settings: 150 mM NaCl, 2 mM MgCl2; 10 mM HEPES pH 7.4; HOLO-FAM-SAM DNA probe hybridizes
[9] = tested on: SAM-I^1-156 (RNA, riboswitch) GGGAUAUCCGUUCUUAUCAAGAGAAGCAGAGGGACUGGCCCGACGAAGCUUCAGCAACCGGUGUAAUGGCGAUCAGCCAUGACCAAGGUGCUAAAUCCAGCAAGCUCGAACAGCUUGGAAGAUAAGAAGAGACAAAAUCACUGACAAAGUCUUCUUCUUCCCCCAAAAAAAAAAAAAAAAAAAAAAAA; assay: as above; settings: 150 mM NaCl, 2 mM MgCl2; 10 mM HEPES pH 7.4, 37 °C; 350 nM RNA; 50 nM HOLO-FAM-SAM DNA probe hybridizes
[10] = tested on: SAM-I^1-156 (RNA, riboswitch) GGGAUAUCCGUUCUUAUCAAGAGAAGCAGAGGGACUGGCCCGACGAAGCUUCAGCAACCGGUGUAAUGGCGAUCAGCCAUGACCAAGGUGCUAAAUCCAGCAAGCUCGAACAGCUUGGAAGAUAAGAAGAGACAAAAUCACUGACAAAGUCUUCUUCUUCCCCCAAAAAAAAAAAAAAAAAAAAAAAA; assay: native PAGE switching with APO-FAM-SAM probe; settings: MgCl2; THEM buffer pH 7.5; APO-FAM-SAM DNA probe displaced
[11] = tested on: FMN^AD (FMN aptamer domain) (RNA, riboswitch) GGGAUCUUCGGGGCAGGGUGAAAUUCCCGACCGGUGGUAUAGUCCACGAAAGUAUUUGCUUUGAUUUGGUGAAAUUCCAAAACCGACAGUAGAGUCUGGAUGAGAGAAGACCCCCAAAAAAAAAAAAAAAAAAAAAAAA; assay: SPR steady state; settings: 150 mM NaCl, MgCl2; HBS-N, 10 mM HEPES pH 7.4
[12] = tested on: FMN^1-212 (RNA, riboswitch) GGGAAAAAUAAAUAUUAAAAAUAAUCUUCGGGGCAGGGUGAAAUUCCCGACCGGUGGUAUAGUCCACGAAAGUAUUUGCUUUGAUUUGGUGAAAUUCCAAAACCGACAGUAGAGUCUGGAUGAGAGAAGAAAAGAAAUUUAAGUUUUUUAACUUGUUUUCUACAUUUUAGUAAUCUUACCCGAAUUCUAUAAUUCGGUUUUUUUAUUUUAACUGGCCCCCAAAAAAAAAAAAAAAAAAAAAAAA; assay: fluorescence anisotropy switching (FASST), APO probe; settings: 150 mM NaCl, 5 mM MgCl2, 350 nM RNA, 5 nM APO-FAM-FMN DNA probe displaced
[13] = tested on: FMN^1-212 (RNA, riboswitch) GGGAAAAAUAAAUAUUAAAAAUAAUCUUCGGGGCAGGGUGAAAUUCCCGACCGGUGGUAUAGUCCACGAAAGUAUUUGCUUUGAUUUGGUGAAAUUCCAAAACCGACAGUAGAGUCUGGAUGAGAGAAGAAAAGAAAUUUAAGUUUUUUAACUUGUUUUCUACAUUUUAGUAAUCUUACCCGAAUUCUAUAAUUCGGUUUUUUUAUUUUAACUGGCCCCCAAAAAAAAAAAAAAAAAAAAAAAA; assay: SPR steady state; settings: 150 mM NaCl, 5 mM MgCl2; HBS-N, 10 mM HEPES pH 7.4; apparent
[14] = tested on: FMN^1-212 (RNA, riboswitch) GGGAAAAAUAAAUAUUAAAAAUAAUCUUCGGGGCAGGGUGAAAUUCCCGACCGGUGGUAUAGUCCACGAAAGUAUUUGCUUUGAUUUGGUGAAAUUCCAAAACCGACAGUAGAGUCUGGAUGAGAGAAGAAAAGAAAUUUAAGUUUUUUAACUUGUUUUCUACAUUUUAGUAAUCUUACCCGAAUUCUAUAAUUCGGUUUUUUUAUUUUAACUGGCCCCCAAAAAAAAAAAAAAAAAAAAAAAA; assay: SPR; settings: 150 mM NaCl, 5 mM MgCl2; HBS-N, 10 mM HEPES pH 7.4; apparent; Table 2 prints 150 ± 180 nM
[15] = tested on: FMN^AD (FMN aptamer domain) (RNA, riboswitch) GGGAUCUUCGGGGCAGGGUGAAAUUCCCGACCGGUGGUAUAGUCCACGAAAGUAUUUGCUUUGAUUUGGUGAAAUUCCAAAACCGACAGUAGAGUCUGGAUGAGAGAAGACCCCCAAAAAAAAAAAAAAAAAAAAAAAA; assay: SPR kinetics; settings: 150 mM NaCl, MgCl2; HBS-N, 10 mM HEPES pH 7.4; apparent
[16] = tested on: SAM-I^1-156 (RNA, riboswitch) GGGAUAUCCGUUCUUAUCAAGAGAAGCAGAGGGACUGGCCCGACGAAGCUUCAGCAACCGGUGUAAUGGCGAUCAGCCAUGACCAAGGUGCUAAAUCCAGCAAGCUCGAACAGCUUGGAAGAUAAGAAGAGACAAAAUCACUGACAAAGUCUUCUUCUUCCCCCAAAAAAAAAAAAAAAAAAAAAAAA; assay: SPR steady state; settings: 150 mM NaCl, 2 mM MgCl2, HBS-N, 10 mM HEPES pH 7.4, apparent, no switching seen by FASST
[17] = tested on: SAM-I^AD (yitJ SAM-I aptamer domain) (RNA, riboswitch) GGGCGUUCUUAUCAAGAGAAGCAGAGGGACUGGCCCGACGAAGCUUCAGCAACCGGUGUAAUGGCGAUCAGCCAUGACCAAGGUGCUAAAUCCAGCAAGCUCGAACAGCUUGGAAGAUAAGAAGCCCCCAAAAAAAAAAAAAAAAAAAAAAAA; assay: SPR steady state; settings: 150 mM NaCl, MgCl2; HBS-N, 10 mM HEPES pH 7.4

C[S+](CC[C@H](N)C(=O)O)C[C@H]1O[C@@H](n2cnc3c(N)ncnc32)[C@H](O)[C@@H]1O (some centres unmarked)
KD [1]: 0.128 ± 0.027 µM
S50 NP [2]: 6 ± 2 µM
KD [3]: 0.0101 ± 0.0004 µM
S50FASST [4]: 8 ± 3 µM
S50FASST [5]: 19 ± 12 µM
KD [6]: 0.004 ± 0.002 µM
S50 NP [7]: 1.03 ± 0.08 µM
S50FASST [8]: 0.19 ± 0.08 µM
S50FASST [9]: 1.7 ± 0.4 µM
S50 NP [10]: 46 ± 44 µM

Cc1cc2nc3c(=O)[nH]c(=O)nc-3n(C[C@H](O)[C@H](O)[C@H](O)CO)c2cc1C
KD [11]: 30 ± 18 µM
S50FASST ([12]; 10 mM HEPES pH 7.4, overnight): 0.7 ± 0.3 µM
KD [13]: 32 ± 11 µM

Cc1cc2nc3c(=O)[nH]c(=O)nc-3n(C[C@H](O)[C@H](O)[C@H](O)CO)c2cc1N(C)C
KD [11]: 2 ± 1 µM
S50FASST ([12]; 10 mM HEPES pH 7.4, overnight): 24 ± 20 µM
KD [13]: 4.9 ± 0.2 µM

Cc1cc2nc3c(=O)[nH]c(=O)nc-3n(C[C@H](O)[C@H](O)[C@H](O)COP(=O)(O)O)c2cc1C
KD [14]: 0.095 ± 0.05 µM
S50FASST ([12]; 10 mM HEPES pH 7.4, 37 °C): 0.29 ± 0.06 µM
KD [15]: 0.16 ± 0.012 µM

Nc1ncnc2c1ncn2[C@@H]1O[C@H](CSCC[C@H](N)C(=O)O)[C@@H](O)[C@H]1O
KD [16]: 46 ± 27 µM
KD [17]: 195 ± 22 µM

Nc1ncnc2c1ncn2[C@@H]1O[C@H](C[C@@H](N)CC[C@H](N)C(=O)O)[C@@H](O)[C@H]1O
KD ([16]; error exceeds value): 2000 ± 3000 µM
KD [17]: 129 ± 14 µM
